Experimental data reported in US20250186486A1, “POTENTIATION OF DURABLE ANTITUMOR IMMUNITY BY MULTIFACTORIAL IMMUNE MODULATION” (BAYLOR COLLEGE OF MEDICINE, priority 2022, published 2025).

What was measured:
[1] = test system: 4T-1 TNBC cells; test: Subcutaneous 4T-1 TNBC tumor model, intratumoral injection; tumor growth by caliper/IVIS, survival; assay type: in vivo, Balb/c mice; settings: 4T-1 s.c.; for impact on tumor growth: injected intratumorally on day 12, caliper (FIGS. 7, 8)
Description: Mice. 6-10 week old female Balb/c mice or C57BL/6 animals of both sexes were procured from Baylor College of Medicine or Jackson Laboratories (Bar Harbor, ME). Th-MYCN mice in the 129X1/SvJ background were a kind gift from Dr. William Weiss (UCSF, San Francisco, CA) and were bred in house. All mice were maintained in accordance with the specific IACUC requirements of Baylor College of Medicine and in accordance with animal protocol AN-8375.
Tumor Implantation and Measurements. 500,000 4T-1 TNBC cells (+/−luc2 transduction) were subcutaneously injected onto the hind quarters/back of each mouse and allowed time to reach palpation (approximately 50-100 mm^3) before treatment. For orthotopic 4T-1 experiments, 500,000 4T-1 cells were implanted in the mammary fat pad according to the method of Zhang et al.^34 Following establishment of tumors, experimental cohorts were assembled by means of stratified randomization. Attempts were made to minimize confounding variables such as order of cohort treatment, order of tumor measurement, and cage location by means of simple randomization. Tumors were treated with either the indicated antitumor regimen or vehicle control and measured by IVIS imaging (if applicable) or calculated by caliper measurement. 100,000 MOC-2 HNSCC cells were subcutaneously injected onto the hind quarters/back of each mouse and allowed to become palpable (approximately 50-100 mm^3) before treatment. Tumor size and progression were determined by caliper measurement. Single cell suspensions were generated from Th-MYCN tumors according to the method of Kroesen et al.^12 Suspensions were subcutaneously injected onto the hind quarters/back of each mouse and allowed time to reach palpation (approximately 50-100 mm^3) before treatment. Tumor size and progression were determined by caliper measurement. Tumor volumes were calculated by measuring in two dimensions according to the formula (longest length^2)×shortest length.
IVIS Imaging. Post tumor implantation, mice were injected with […] of 10 mg/ml D-Luciferin (Regis Technologies, Morton Grove, IL), incubated for 7 min and bio-luminescence was measured with the IVIS imaging system (Caliper Life Sciences, Waltham, MA) following a 60 second exposure. Imaging was performed at 2-4 day intervals.
Antitumor reagents. For optimization in the TNBC model, all reagents were dissolved in either DMSO or sterile water based on solubility requirements and included Copper(II) diethyldithiocarbamate at 85 μg/50 μl (VWR, Radnor, PA), 2-Cl-IB-MECA at 20 μg/50 μl (Millipore, Burlington, MA), DMXAA at […]/50 μl (R&D Systems, Minneapolis, MN), 5′ppp-dsRNA/Lyovec at 375 ng/50 μl (Invivogen, San Diego, CA), R848 at 15 μg/50 μl (Invivogen), galunisertib at […]/50 μl (Selleckchem, Houston, TX), epcadostat at […]/50 μl (Selleckchem), N^w-Hydroxy-nor-L-arginine at 6 μg/50 μl (Sigma-Aldrich, St. Louis, MO), L-NMMA at 100 ng/50 μl (Abcam, Boston, MA), clodronate at […]/50 μl (Abcam), and 4-1BB ligand at 1 μg/50 μl (NovusBio). Combinatorial treatments were reconstituted as a 10× stock, combined as necessary, and diluted to a 1× concentration with the appropriate diluent. Treatments were intratumorally injected with a 28 gauge needle as a 50 μl bolus. […]
Statistical Analysis. Significance of differences, unless stated otherwise, was determined by one-way analysis of variance (ANOVA) using Tukey's honestly significant difference (HSD) post hoc test. […]

[2] = test system: 4T-1 luc-2+ cells; test: Orthotopic 4T-1 TNBC model (mammary fat pad), intratumoral treatment, IVIS; assay type: in vivo, Balb/c mice; settings: 4T-1 luc-2+ in mammary fat pad, intratumoral treatment from day 7
Protocol: Lastly, the boosting regimen was combined together with regimen 16 and performed a dose response analysis at 1×, 0.5×, 0.125×, 0.0625×, and 0.03125× concentrations. […] Similar to the experiment outlined in FIGS. 1C-D, this experiment was performed with the 4T-1 luc2^neg parent cell line to validate that protective immune responses were not dependent upon the presence of xenogeneic luciferase. The treatment model was next validated in the orthotopic setting (Zhang et al., 2019). In this series of experiments, 500,000 4T-1 luc-2^+ cells were implanted under the fourth nipple of the mammary fat pad. […]
Tumor Implantation and Measurements. […] Tumors were treated with either the indicated antitumor regimen or vehicle control and measured by IVIS imaging (if applicable) or calculated by caliper measurement. […] Tumor size and progression were determined by caliper measurement. […] Tumor size and progression were determined by caliper measurement. Tumor volumes were calculated by measuring in two dimensions according to the formula (longest length^2)×shortest length.
IVIS Imaging. Post tumor implantation, mice were injected with […] of 10 mg/ml D-Luciferin (Regis Technologies, Morton Grove, IL), incubated for 7 min and bio-luminescence was measured with the IVIS imaging system (Caliper Life Sciences, Waltham, MA) following a 60 second exposure. […]

NS(=O)(=O)NCCNc1nonc1C(=NO)Nc1ccc(F)c(Br)c1 [epacadostat]
impact on tumor growth [1]: no beneficial impact on tumor growth

CC(=O)O.CNC(=N)NCCC[C@H](N)C(=O)O [L-NMMA, L-NG-monomethyl arginine acetate]
impact on tumor growth [1]: no beneficial impact on tumor growth

4-1BBL: 4-1BB ligand (NovusBio), 4-1BB agonist
effect of presence of 4-1BBL on anti-tumor effects of the TLR, STING and RLR agents ([1]; FIG. 8): antagonized the anti-tumor effects

N=C(NO)NCC[C@H](N)C(=O)O [No-hydroxy-nor-L-arginine]
impact on tumor growth [1]: no beneficial impact on tumor growth

Cc1cccc(-c2nn3c(c2-c2ccnc4ccc(C(N)=O)cc24)CCC3)n1 [galunersitib, galunisertib]
tumor growth in the orthotopic setting [2]: no impact on tumor growth

O=P(O)(O)C(Cl)(Cl)P(=O)(O)O [clodronate]
impact on tumor growth [1]: no beneficial impact on tumor growth
